# In paper PMC9616048, “Thermal proteome profiling reveals Haemonchus orphan protein HCO_011565 as a target of the nematocidal small molecule UMW-868” (Frontiers in Pharmacology, 2022):
# Like-named read-outs stand apart in the source and are kept apart here.
# How the values were obtained:
# H. contortus xL3s = assay: Dose-response evaluation, xL3 motility; format: cell-based; conditions: Haemonchus contortus
# Method: These evaluations were carried out to estimate the half-maximal inhibitory concentrations (IC50 values) for hit compounds against H. contortus xL3s. With reference to the two positive-control compounds (monepantel and moxidectin), IC50 values for compounds were estimated ([Preston et al., 2015]; [Taki et al., 2021a]) using two-fold serial dilution (in LB*; 9 points from 50 μM to 0.2 µM) in 96-well plates (cat. no. 3596; Corning) with larvae at a density of 300 H. contortus xL3s in 100 µl per well. Plates containing H. contortus xL3s were incubated at 38°C, 10% (v/v) CO2 and >90% relative humidity.
# Compound concentrations were log10-transformed and fitted using a variable slope four-parameter equation, constraining the highest value to 100% employing a least squares (ordinary) fit model using GraphPad Prism software (v.9.1.2). Compounds were tested by three independent experiments in triplicate. A one-way analysis of variance (ANOVA) with a Tukey’s multiple comparison test or an unpaired t-test was used to establish statistically significant differences in larval motility or development.
# [1] = test system: mitochondria of HepG2 human hepatoma cells; assay: Mitochondrial toxicity in HepG2 cells (galactose medium); format: cell-based; conditions: HepG2 mitochondria, concentrations of up to 100 µM
# Method: The toxicities of compounds on cell and mitochondria were assessed to estimate their half-maximal cytotoxic concentrations (CC50) and half-maximal mitotoxic concentrations (MC50), respectively. HepG2 human hepatoma cells were seeded into wells of a 96-well plate at a density of 5.5 × 10^4 cells per well in 80 µl of Dulbecco’s modified eagle medium (DMEM; with GlutaMax™ cat. no. 10566016 or 4 mM L-glutamine cat. no. 11966025; Thermo Fisher Scientific), supplemented with 25 mM D-glucose (cytotoxicity) or D-galactose (mitotoxicity), 10% (v/v) inactivated foetal bovine serum (iFBS), 100 IU/ml of penicillin, 100 μg/ml of streptomycin and 0.25 μg/ml of amphotericin B (designated DMEM*). Cells were allowed to adhere for 16 h at 37°C and 5% (v/v) CO2 at > 90% relative humidity, then, incubated for 48 h with individual, serially-diluted compounds (two-fold serial dilution in DMEM*; […]) in a final volume of 100 µl. For the assessment of toxicity on mitochondria, cells were starved of serum (DMEM* without iFBS) for 4 h prior to the 48 h-incubation with compounds ([Swiss and Will, 2011]; [Kamalian et al., 2015]). Two positive control compounds, doxorubicin (cytotoxic control) and M-666 (mitotoxic control) were each added to three individual wells in each 96-well plate at a single concentration of 10 µM. DMEM* + 0.25% (v/v) DMSO was added to 12 wells in each plate as negative controls. Monepantel and moxidectin were also serially diluted — prepared in the same manner as test compounds — and used as (“non-toxic”) reference compounds. After 48 h of incubation, cell viability was determined by the crystal violet staining method ([Śliwka et al., 2016]). The absorbance (595 nm) of treated cells was normalised with reference to the negative control (100% viability). To determine the CC50 and MC50 values, compound concentrations were log10-transformed, baseline-corrected using a respective positive control (doxorubicin or M-666) and fitted using a variable slope four-parameter equation with a least squares (ordinary) fit model using GraphPad Prism software (v.9.1.2). Compounds and controls were tested in triplicate.
# [2] = test system: A. ceylanicum in hamsters; assay: In vivo activity against A. ceylanicum in hamsters; set-up: species or system Ancylostoma ceylanicum
# Method: Candidate compound(s) were tested for their effect on other nematode species (He. polygyrus and A. ceylanicum) in infected rodents.
# For He. polygyrus, four NMRI mice (3 weeks old; female) were infected orally with 88 He. polygyrus L3s, and immunosuppressed with 0.25 mg/ml dexamethasone (Sigma-Aldrich), in the drinking water, until 2 days prior to treatment ([Mes et al., 2007]). For A. ceylanicum, four Syrian golden hamsters (3 weeks old; male) were infected orally with 300 L3s without immunosuppression ([Tritten et al., 2012]). Fourteen days or 23 days after the infection, mice and hamsters, respectively, were treated orally with UMW-868 at dosages of 100 mg/kg bw (mice and hamsters). Four each of untreated mice and hamsters served as placebo controls. Six to 7 days post-treatment with the compound, all animals were euthanised by CO2 (hamsters being initially narcotised using isoflurane), and the intestine was dissected. The live adult worms were collected and counted to calculate the worm burden reductions and worm expulsion rates. The worm burden reduction was calculated using the mean number of live worms for the treated group and establishing the differences, in a percentage, with reference to the untreated control group.
# [3] = hamster, A. ceylanicum, 100 mg/kg single oral dose
compound,measurement,setting,value
"CCCc1ccc(-c2nc(-c3cccs3)no2)cc1 [UMW-868, 5-(4-propylphenyl)-3-(2-thienyl)-1,2,4-oxadiazole]",IC50,"H. contortus xL3s; 90 h, xL3s, 90 h, read-out: IC50 (motility)",5.6 µM
same,IC50,"H. contortus xL3s; 168 h, analog series, read-out: xL3 motility reduction (IC50 in µM)",13.8 µM
same,mitotoxicity (in words),[1],did not display any appreciable cytotoxicity or mitotoxicity
same,Mean no. of worms (SD),[2]; [3],4.8 (1.0)
same,Reduction in infection intensity (%),[2]; [3],48%
same,acute toxicity and pathological changes in treated animals,"[2]; hamsters, single oral dose, post-mortem examination",neither evidence of acute toxicity
